Assay results from US9676782B2, “Substituted pyrazolo[1,5-a]pyrazines as negative allosteric modulators of metabotropic glutamate receptor 3” (Vanderbilt University, priority 2014, dated 2017).
Read-outs that look alike come from different tables or passages of the source. Values belong to the compound of their own block, whether it stands above or below them.

Columns and labels:
rat mGlu5 = rat mGlu5 (Rattus norvegicus (Rat), UniProt P31424); assay: mGlu5 Ca2+ flux assay; assay type: cell-based; conditions: for Fold selectivity (mGlu3 vs. mGlu5): ratio of rat mGlu5 EC50 or IC50 to rat mGlu3 IC50; for EC50 / IC50: read-out: rat mGlu5 EC50 or IC50; for IC50 / Emax at 30 µM: compound noted as NAM or partial antagonist (PAnt) at mGlu5; for IC50: glutamate EC80; for Emax at 30 µM: response at 30 μM as % of maximal glutamate response, read-out: rat mGlu5 Glu max (%)
How it was run: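 Transfected cells grown overnight at 37° C/5% CO2, dye-loaded, then 5 min in assay buffer at RT before Ca2+ flux read on FDSS7000. Fluorescence as F/F0 fold over basal, normalized to maximal glutamate response; EC50 from unconstrained 4-parameter logistic fit, triplicates weighted evenly.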

rat mGlu3 = rat mGlu3 (Rattus norvegicus (Rat), UniProt P31422); assay: mGlu3 Ca2+ flux assay; assay type: cell-based; conditions: for remaining activity at 30 µM: amplitude of response at 30 μM test compound as % of maximal response to glutamate, read-out: rat mGlu3 Glu max (%); for IC50: read-out: rat mGlu3 IC50
How it was run: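 Cells expressing rat mGlu3 were grown overnight at 37° C. under 5% CO2, then loaded with dye. After dye removal they received 20 μL of assay buffer and sat 10 minutes at room temperature. Calcium flux was read on a Hamamatsu FDSS7000, and fluorescence was expressed as fold over basal and normalized to the maximal glutamate response.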

[1] = NAM potency, decrease of glutamate EC80 response, >30,000 = no measurable activity, >10,000 = no plateau

Sequence of rat mGlu3 (P31422 23-879): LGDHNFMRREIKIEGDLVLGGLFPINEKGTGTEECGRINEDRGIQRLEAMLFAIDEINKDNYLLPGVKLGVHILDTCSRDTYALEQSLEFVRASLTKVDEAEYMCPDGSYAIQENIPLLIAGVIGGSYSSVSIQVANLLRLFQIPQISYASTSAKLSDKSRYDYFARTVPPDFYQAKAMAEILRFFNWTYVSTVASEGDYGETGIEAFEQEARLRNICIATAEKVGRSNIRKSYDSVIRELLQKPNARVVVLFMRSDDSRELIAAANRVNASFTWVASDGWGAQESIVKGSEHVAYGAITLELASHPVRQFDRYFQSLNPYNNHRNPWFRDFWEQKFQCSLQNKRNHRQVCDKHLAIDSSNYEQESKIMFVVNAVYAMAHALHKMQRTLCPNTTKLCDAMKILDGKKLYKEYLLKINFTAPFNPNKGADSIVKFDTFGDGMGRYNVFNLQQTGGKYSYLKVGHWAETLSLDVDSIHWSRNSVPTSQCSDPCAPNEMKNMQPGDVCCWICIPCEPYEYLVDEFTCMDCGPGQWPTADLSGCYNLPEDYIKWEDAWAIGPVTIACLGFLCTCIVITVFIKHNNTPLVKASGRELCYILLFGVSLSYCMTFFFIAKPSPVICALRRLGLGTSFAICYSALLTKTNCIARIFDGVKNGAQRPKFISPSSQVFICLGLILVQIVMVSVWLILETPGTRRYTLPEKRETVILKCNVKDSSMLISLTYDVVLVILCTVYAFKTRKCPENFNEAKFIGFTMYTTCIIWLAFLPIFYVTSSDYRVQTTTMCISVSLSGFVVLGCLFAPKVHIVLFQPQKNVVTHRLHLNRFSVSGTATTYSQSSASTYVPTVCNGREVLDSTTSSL
Sequence of rat mGlu5 (P31424 21-1203): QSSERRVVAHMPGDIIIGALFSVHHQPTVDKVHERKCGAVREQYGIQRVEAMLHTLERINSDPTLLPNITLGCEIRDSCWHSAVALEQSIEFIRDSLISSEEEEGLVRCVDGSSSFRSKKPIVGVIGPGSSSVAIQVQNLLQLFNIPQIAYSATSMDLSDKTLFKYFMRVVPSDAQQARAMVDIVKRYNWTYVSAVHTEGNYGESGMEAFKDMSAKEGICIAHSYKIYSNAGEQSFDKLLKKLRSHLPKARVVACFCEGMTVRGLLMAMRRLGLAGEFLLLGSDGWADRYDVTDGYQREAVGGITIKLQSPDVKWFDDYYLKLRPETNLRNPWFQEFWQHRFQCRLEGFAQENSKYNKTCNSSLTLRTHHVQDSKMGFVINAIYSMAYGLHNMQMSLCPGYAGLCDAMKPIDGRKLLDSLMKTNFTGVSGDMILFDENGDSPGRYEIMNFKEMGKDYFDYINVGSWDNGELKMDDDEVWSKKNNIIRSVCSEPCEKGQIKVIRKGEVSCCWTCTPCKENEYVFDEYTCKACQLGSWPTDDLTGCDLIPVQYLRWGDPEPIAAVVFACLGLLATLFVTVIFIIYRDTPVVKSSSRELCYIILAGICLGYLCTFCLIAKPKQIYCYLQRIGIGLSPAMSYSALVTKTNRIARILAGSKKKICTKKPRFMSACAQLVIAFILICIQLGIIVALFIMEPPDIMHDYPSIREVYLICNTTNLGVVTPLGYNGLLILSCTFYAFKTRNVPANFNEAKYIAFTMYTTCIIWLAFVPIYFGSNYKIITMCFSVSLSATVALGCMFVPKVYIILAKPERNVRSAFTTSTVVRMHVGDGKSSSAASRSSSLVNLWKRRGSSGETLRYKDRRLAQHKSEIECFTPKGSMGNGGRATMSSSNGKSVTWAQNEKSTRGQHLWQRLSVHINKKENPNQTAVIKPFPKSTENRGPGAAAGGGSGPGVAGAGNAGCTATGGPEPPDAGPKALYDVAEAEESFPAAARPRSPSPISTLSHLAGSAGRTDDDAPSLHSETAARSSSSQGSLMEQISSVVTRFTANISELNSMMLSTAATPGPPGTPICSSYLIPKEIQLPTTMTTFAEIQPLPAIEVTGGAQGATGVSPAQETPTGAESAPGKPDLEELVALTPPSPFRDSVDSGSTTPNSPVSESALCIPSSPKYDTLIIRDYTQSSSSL

Fold selectivity (mGlu3 vs. mGlu5) (rat mGlu5): >29
EC50 (rat mGlu5): > 30000 nM
remaining activity at 30 µM (rat mGlu3): 0.79%
IC50 (rat mGlu3): 1020 nM
Structure (SMILES): COc1ccc(N(C)Cc2cc3n(n2)CCN(c2cc(F)ccc2F)C3=O)cc1 [Compound 106, 5-(2,5-difluorophenyl)-2-(((4-methoxyphenyl)(methyl)amino)methyl)-6,7-dihydropyrazolo[1,5-a]pyrazin-4(5H)-one]

Structure (SMILES): COc1ccc(N(C)Cc2cc3n(n2)CCN(c2cccc(F)c2F)C3=O)cc1 [Compound 107, 5-(2,3-difluorophenyl)-2-(((4-methoxyphenyl)(methyl)amino)methyl)-6,7-dihydropyrazolo[1,5-a]pyrazin-4(5H)-one]
Fold selectivity (mGlu3 vs. mGlu5) (rat mGlu5): >29
EC50 (rat mGlu5): > 30000 nM
IC50 (rat mGlu3; [1]): 1030 nM
remaining activity at 30 µM (rat mGlu3): 1.67%

Structure (SMILES): COc1ccc(N(C)Cc2cc3n(n2)CCN(c2ccc(C)cc2F)C3=O)cc1 [Compound 108, 5-(2-fluoro-4-methylphenyl)-2-(((4-methoxyphenyl)(methyl)amino)methyl)-6,7-dihydropyrazolo[1,5-a]pyrazin-4(5H)-one]
Fold selectivity (mGlu3 vs. mGlu5) (rat mGlu5): >24
EC50 (rat mGlu5): > 30000 nM
IC50 (rat mGlu3; [1]): 1250 nM
remaining activity at 30 µM (rat mGlu3): 0.97%

Structure (SMILES): COc1ccc(N(C)Cc2cc3n(n2)CCN(c2ccc(F)cc2C)C3=O)cc1 [Compound 109, 5-(4-fluoro-2-methylphenyl)-2-(((4-methoxyphenyl)(methyl)amino)methyl)-6,7-dihydropyrazolo[1,5-a]pyrazin-4(5H)-one]
Fold selectivity (mGlu3 vs. mGlu5) (rat mGlu5): >22
EC50 (rat mGlu5): > 30000 nM
IC50 (rat mGlu3; [1]): 1320 nM
remaining activity at 30 µM (rat mGlu3): 2.13%

Structure (SMILES): COc1ccc(N(C)Cc2cc3n(n2)CCN(c2c(F)cccc2F)C3=O)cc1 [Compound 110, 5-(2,6-difluorophenyl)-2-(((4-methoxyphenyl)(methyl)amino)methyl)-6,7-dihydropyrazolo[1,5-a]pyrazin-4(5H)-one]
Fold selectivity (mGlu3 vs. mGlu5) (rat mGlu5): >18
EC50 (rat mGlu5): > 30000 nM
IC50 (rat mGlu3; [1]): 1640 nM
remaining activity at 30 µM (rat mGlu3): 1.75%

Structure (SMILES): COc1ccc(N(C)Cc2cc3n(n2)CCN(c2ccccc2C)C3=O)cc1 [Compound 111, 2-(((4-methoxyphenyl)(methyl)amino)methyl)-5-(o-tolyl)-6,7-dihydropyrazolo[1,5-a]pyrazin-4(5H)-one]
Fold selectivity (mGlu3 vs. mGlu5) (rat mGlu5): >15
EC50 (rat mGlu5): > 30000 nM
IC50 (rat mGlu3; [1]): 2000 nM
remaining activity at 30 µM (rat mGlu3): 0.74%

Structure (SMILES): COc1ccc(N(C)Cc2cc3n(n2)CCN(c2ccccc2C#N)C3=O)cc1 [Compound 112, 2-(2-(((4-methoxyphenyl)(methyl)amino)methyl)-4-oxo-6,7-dihydropyrazolo[1,5-a]pyrazin-5(4H)-yl)benzonitrile]
Fold selectivity (mGlu3 vs. mGlu5) (rat mGlu5): >7.9
EC50 (rat mGlu5): > 30000 nM
IC50 (rat mGlu3; [1]): 3790 nM
remaining activity at 30 µM (rat mGlu3): 1.1%

Structure (SMILES): COc1ccc(N(C)Cc2cc3n(n2)CCN(c2cccc(OC)c2)C3=O)cc1 [Compound 113, 5-(3-methoxyphenyl)-2-(((4-methoxyphenyl)(methyl)amino)methyl)-6,7-dihydropyrazolo[1,5-a]pyrazin-4(5H)-one]
Fold selectivity (mGlu3 vs. mGlu5) (rat mGlu5): >26
EC50 (rat mGlu5): > 30000 nM
IC50 (rat mGlu3; [1]): 1120 nM
remaining activity at 30 µM (rat mGlu3): 0.7%

Structure (SMILES): COc1ccc(N(C)Cc2cc3n(n2)CCN(c2ccc(OC)cc2)C3=O)cc1 [Compound 114, 5-(4-methoxyphenyl)-2-(((4-methoxyphenyl)(methyl)amino)methyl)-6,7-dihydropyrazolo[1,5-a]pyrazin-4(5H)-one]
Fold selectivity (mGlu3 vs. mGlu5) (rat mGlu5): >21
EC50 (rat mGlu5): > 30000 nM
IC50 (rat mGlu3; [1]): 1370 nM
remaining activity at 30 µM (rat mGlu3): 1.7%

Structure (SMILES): COc1ccc(N(C)Cc2cc3n(n2)CCN(c2csc(C)n2)C3=O)cc1 [Compound 115, 2-(((4-methoxyphenyl)(methyl)amino)methyl)-5-(2-methylthiazol-4-yl)-6,7-dihydropyrazolo[1,5-a]pyrazin-4(5H)-one]
Fold selectivity (mGlu3 vs. mGlu5) (rat mGlu5): >18
EC50 (rat mGlu5): > 30000 nM
IC50 (rat mGlu3; [1]): 1620 nM
remaining activity at 30 µM (rat mGlu3): 3.88%

Structure (SMILES): COc1ccc(N(C)Cc2cc3n(n2)CCN(c2cccc(C#N)c2)C3=O)cc1 [Compound 116, 3-(2-(((4-methoxyphenyl)(methyl)amino)methyl)-4-oxo-6,7-dihydropyrazolo[1,5-a]pyrazin-5(4H)-yl)benzonitrile]
Fold selectivity (mGlu3 vs. mGlu5) (rat mGlu5): >13
EC50 (rat mGlu5): > 30000 nM
IC50 (rat mGlu3; [1]): 2210 nM
remaining activity at 30 µM (rat mGlu3): 1.55%

Structure (SMILES): COc1ccc(N(C)Cc2cc3n(n2)CCN(c2ccccn2)C3=O)cc1 [Compound 117, 2-(((4-methoxyphenyl)(methyl)amino)methyl)-5-(pyridin-2-yl)-6,7-dihydropyrazolo[1,5-a]pyrazin-4(5H)-one]
Fold selectivity (mGlu3 vs. mGlu5) (rat mGlu5): >10
EC50 (rat mGlu5): > 30000 nM
IC50 (rat mGlu3; [1]): 2730 nM
remaining activity at 30 µM (rat mGlu3): 1.59%

Structure (SMILES): COc1ccc(N(C)Cc2cc3n(n2)CCN(c2ccc(C#N)cc2)C3=O)cc1 [Compound 118, 4-(2-(((4-methoxyphenyl)(methyl)amino)methyl)-4-oxo-6,7-dihydropyrazolo[1,5-a]pyrazin-5(4H)-yl)benzonitrile]
Fold selectivity (mGlu3 vs. mGlu5) (rat mGlu5): >15
EC50 (rat mGlu5): > 30000 nM
IC50 (rat mGlu3; [1]): 1970 nM
remaining activity at 30 µM (rat mGlu3): 1.63%

Structure (SMILES): COc1ccc(N(C)Cc2cc3n(n2)CCN(c2ccccc2OC)C3=O)cc1 [Compound 119, 5-(2-methoxyphenyl)-2-(((4-methoxyphenyl)(methyl)amino)methyl)-6,7-dihydropyrazolo[1,5-a]pyrazin-4(5H)-one]
Fold selectivity (mGlu3 vs. mGlu5) (rat mGlu5): >9.1
EC50 (rat mGlu5): > 30000 nM
IC50 (rat mGlu3; [1]): 3280 nM
remaining activity at 30 µM (rat mGlu3): 1.3%

Fold selectivity (mGlu3 vs. mGlu5) (rat mGlu5): >10
EC50 (rat mGlu5): > 30000 nM
remaining activity at 30 µM (rat mGlu3): 1.48%
IC50 (rat mGlu3): 2880 nM
Structure (SMILES): COCc1ccc(N2CCn3nc(CN(C)c4ccc(OC)cc4)cc3C2=O)cc1 [Compound 120, 5-(4-(methoxymethyl)phenyl)-2-(((4-methoxyphenyl)(methyl)amino)methyl)-6,7-dihydropyrazolo[1,5-a]pyrazin-4(5H)-one]

Structure (SMILES): COc1ccc(N(C)Cc2cc3n(n2)CCN(c2cccnc2)C3=O)cc1 [Compound 121, 2-(((4-methoxyphenyl)(methyl)amino)methyl)-5-(pyridin-3-yl)-6,7-dihydropyrazolo[1,5-a]pyrazin-4(5H)-one]
Fold selectivity (mGlu3 vs. mGlu5) (rat mGlu5): >6.3
EC50 (rat mGlu5): > 30000 nM
IC50 (rat mGlu3; [1]): 4690 nM
remaining activity at 30 µM (rat mGlu3): 0.66%

Structure (SMILES): COc1ccc(N(C)Cc2cc3n(n2)CCN(c2ccc(F)cn2)C3=O)cc1 [Compound 122, 5-(5-fluoropyridin-2-yl)-2-(((4-methoxyphenyl)(methyl)amino)methyl)-6,7-dihydropyrazolo[1,5-a]pyrazin-4(5H)-one]
Fold selectivity (mGlu3 vs. mGlu5) (rat mGlu5): >26
EC50 (rat mGlu5): > 30000 nM
IC50 (rat mGlu3; [1]): 1140 nM
remaining activity at 30 µM (rat mGlu3): 1.4%

Structure (SMILES): COc1ccc(N(C)Cc2cc3n(n2)CCN(c2ccc(OC(F)F)cc2)C3=O)cc1 [Compound 123, 5-(4-(difluoromethoxy)phenyl)-2-(((4-methoxyphenyl)(methyl)amino)methyl)-6,7-dihydropyrazolo[1,5-a]pyrazin-4(5H)-one]
Fold selectivity (mGlu3 vs. mGlu5) (rat mGlu5): >29
EC50 (rat mGlu5): > 30000 nM
IC50 (rat mGlu3; [1]): 1030 nM
remaining activity at 30 µM (rat mGlu3): 0.3%

Structure (SMILES): COc1ccc(N(C)Cc2cc3n(n2)CCN(c2ccc(Cl)cn2)C3=O)cc1 [Compound 124, 5-(5-chloropyridin-2-yl)-2-(((4-methoxyphenyl)(methyl)amino)methyl)-6,7-dihydropyrazolo[1,5-a]pyrazin-4(5H)-one]
Fold selectivity (mGlu3 vs. mGlu5) (rat mGlu5): >32
EC50 (rat mGlu5): > 30000 nM
IC50 (rat mGlu3; [1]): 917 nM
remaining activity at 30 µM (rat mGlu3): 1.64%

Structure (SMILES): COc1ccc(N(C)Cc2cc3n(n2)CCN(c2ccc(Cl)cc2F)C3=O)cc1 [Compound 125, 5-(4-chloro-2-fluorophenyl)-2-(((4-methoxyphenyl)(methyl)amino)methyl)-6,7-dihydropyrazolo[1,5-a]pyrazin-4(5H)-one]
Fold selectivity (mGlu3 vs. mGlu5) (rat mGlu5): >21
EC50 (rat mGlu5): > 30000 nM
IC50 (rat mGlu3; [1]): 1380 nM
remaining activity at 30 µM (rat mGlu3): 1.47%

Structure (SMILES): COc1ccc(N(C)Cc2cc3n(n2)CCN(c2cccc(F)c2Cl)C3=O)cc1 [Compound 126, 5-(2-chloro-3-fluorophenyl)-2-(((4-methoxyphenyl)(methyl)amino)methyl)-6,7-dihydropyrazolo[1,5-a]pyrazin-4(5H)-one]
IC50 (rat mGlu5): > 10000 nM
Emax at 30 µM (rat mGlu5): 56.8%
Fold selectivity (mGlu3 vs. mGlu5) (rat mGlu5): >6.2
IC50 (rat mGlu3; [1]): 1600 nM
remaining activity at 30 µM (rat mGlu3): 1.5%

Structure (SMILES): COc1ccc(N(C)Cc2cc3n(n2)CCN(c2cc(Cl)ccc2F)C3=O)cc1 [Compound 127, 5-(5-chloro-2-fluorophenyl)-2-(((4-methoxyphenyl)(methyl)amino)methyl)-6,7-dihydropyrazolo[1,5-a]pyrazin-4(5H)-one]
IC50 (rat mGlu5): > 10000 nM
Emax at 30 µM (rat mGlu5): 54.6%
Fold selectivity (mGlu3 vs. mGlu5) (rat mGlu5): >7.9
IC50 (rat mGlu3; [1]): 1260 nM
remaining activity at 30 µM (rat mGlu3): 2.32%

Structure (SMILES): COc1ccc(N(C)Cc2cc3n(n2)CCN(c2c(F)cc(Cl)cc2F)C3=O)cc1 [Compound 128, 5-(4-chloro-2,6-difluorophenyl)-2-(((4-methoxyphenyl)(methyl)amino)methyl)-6,7-dihydropyrazolo[1,5-a]pyrazin-4(5H)-one]
Fold selectivity (mGlu3 vs. mGlu5) (rat mGlu5): >16
EC50 (rat mGlu5): > 30000 nM
IC50 (rat mGlu3; [1]): 1860 nM
remaining activity at 30 µM (rat mGlu3): 1.8%
